Data reported in US3963707A, “Novel N-nitroso compounds, compositions containing such compounds, processes for their preparation and methods of treatment therewith, and novel intermediates” (Aktiebolaget Leo, priority 1973, dated 1976).

Tests used:
Hepatoma AH 130 = assay: in vivo; set-up: species or system SPF Wistar rats; conditions: additional compounds, result in words
How it was run: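 SPF Wistar rats were implanted i.p. with 5 × 10^6 AH 130 cells and given one i.p. dose the next day. On day 8 they were killed and tumour weights were compared with controls. ED50 is the dose halving tumour size, LD50 the 50% lethal dose, and T.I. is LD50/ED50.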

[1] = tested on: Ehrlich ascites tumour, ELD hyperdiploid (46 chromosomes); assay: Ehrlich ascites tumour test (LD50, ED50, therapeutic index); type: in vivo, SPF NMRI mice; conditions: additional compounds, result in words
Excerpt: The high activity against tumours is further illustrated in these experiments by comparisons with known antitumour agents used in the therapy. The therapeutic indexes (T.I.), i.e. the ratios LD50/ED50, are in all comparisons much more favourable with the compounds of the present invention.
LD50 is the dose that caused a 50 percent lethality of the animals, ED50 is the dose that caused a 50 percent reduction of tumour size.
The experimental design and the interpretation of the results have been in accordance with the standards set by the CCNSC (Cancer Chemotherapy Reports, January 1959 and December 1962), and by the DR&D (Cancer Chemotherapy Reports, September 1972, Vol. 3, No. 2).
The way of administration is by the intraperitoneal route (i.p.) in each case.
Ehrlich ascites tumour, ELD hyperdiploid (46 chromosomes)
Experimental animals: SPF NMRI mice.
Tumour implant: 2 × 10^6 tumour cells i.p.
Therapy: One injection i.p. on the day following implantation.
Termination: The animals are killed on the 8th day.
Evaluation: Weights of tumours of test animals compared with those of control animals.

## C[C@]12CC[C@H](OC(=O)N(C(=O)N(CCCl)N=O)c3ccccc3)CC1=CC[C@@H]1[C@@H]2CC[C@]2(C)C(=O)CC[C@@H]12 [dehydroepiandrosterone-3β-/N^2-phenyl-N^4-(2-chloroethyl)-N^4-nitroso allophanate/]
Hepatoma AH 130
  anti-tumor activity: exhibit anti-tumor activity
[1]
  anti-tumor activity: exhibit anti-tumor activity

## C[C@]12CC[C@H](OC(=O)N(C(=O)N(CCCl)N=O)C3CCCCC3)CC1=CC[C@@H]1[C@@H]2CC[C@]2(C)C(=O)CC[C@@H]12 [dehydroepiandrosterone-3β-/N^2-cyclohexyl-N^4-(2-chloroethyl)-N^4-nitroso allophanate/]
Hepatoma AH 130
  anti-tumor activity: exhibit anti-tumor activity
[1]
  anti-tumor activity: exhibit anti-tumor activity

## C[C@]12CC[C@@H](OC(=O)N(CCCl)N=O)C[C@H]1CC[C@@H]1[C@@H]2CC[C@]2(C)C(=O)CC[C@@H]12 [etiocholanolone-3α-N-(2-chloroethyl)-N-nitroso carbamate]
Hepatoma AH 130
  anti-tumor activity: exhibit anti-tumor activity
[1]
  anti-tumor activity: exhibit anti-tumor activity

## C[C@]12CC[C@H]3[C@@H](CCC4=CC(=O)CC[C@@]43C)[C@@H]1CC[C@@H]2OC(=O)N(C(=O)N(CCCl)N=O)C1CCCCC1 [testosterone-17β-/N^2-cyclohexyl-N^4-(2-chloroethyl)-N^4-nitroso allophanate/]
Hepatoma AH 130
  anti-tumor activity: exhibit anti-tumor activity
[1]
  anti-tumor activity: exhibit anti-tumor activity

## C[C@]12C=CC(=O)C=C1CC[C@@H]1[C@@H]2C(=O)C[C@@]2(C)[C@H]1CC[C@]2(O)C(=O)COC(=O)N(CCCl)N=O [prednisone-21-N-(2-chloroethyl)-N-nitroso carbamate]
Hepatoma AH 130
  anti-tumor activity: exhibit anti-tumor activity
[1]
  anti-tumor activity: exhibit anti-tumor activity

## CC(=O)Oc1ccc2c(c1)CC[C@@H]1[C@@H]2CC[C@]2(C)[C@@H](OC(=O)N(C(=O)N(CCCl)N=O)C3CCCCC3)CC[C@@H]12 [estradiol-3-acetate-17β-/N^2-cyclohexyl-N^4-(2-chloroethyl)-N^4-nitroso allophanate/]
Hepatoma AH 130
  anti-tumor activity: exhibit anti-tumor activity
[1]
  anti-tumor activity: exhibit anti-tumor activity

## C[C@]12CC[C@@H](OC(=O)N(CCCl)N=O)C[C@@H]1CC[C@@H]1[C@@H]2CC[C@]2(C)[C@@H](OP(=O)(O)O)CC[C@@H]12 [androstanediol-3α-N-(2-chloroethyl)-N-nitroso carbamate-17β-dihydrogen phosphate]
Hepatoma AH 130
  anti-tumor activity: exhibit anti-tumor activity
[1]
  anti-tumor activity: exhibit anti-tumor activity

## CN(C(=O)O[C@H]1CC[C@@]2(C)C(=CC[C@@H]3[C@@H]2CC[C@]2(C)C(=O)CC[C@@H]32)C1)C(=O)N(CCCl)N=O [dehydroepiandrosterone-3β-/N^2-methyl-N^4-(2-chloroethyl)-N^4-nitroso allophanate/]
Hepatoma AH 130
  anti-tumor activity: exhibit anti-tumor activity
[1]
  anti-tumor activity: exhibit anti-tumor activity

## CC(C)CCC[C@@H](C)[C@H]1CC[C@H]2[C@@H]3CC=C4C[C@@H](OC(=O)N(C(=O)N(CCCl)N=O)C5CCCCC5)CC[C@]4(C)[C@H]3CC[C@]12C [cholesterol-3β-/N^2-cyclohexyl-N^4-(2-chloroethyl)-N^4-nitroso allophanate/]
Hepatoma AH 130
  anti-tumor activity: exhibit anti-tumor activity
[1]
  anti-tumor activity: exhibit anti-tumor activity

## CC(=O)[C@@]1(OC(=O)N(CCCl)N=O)CC[C@H]2[C@@H]3CCC4=CC(=O)CC[C@]4(C)[C@H]3CC[C@@]21C [17α-hydroxy-progesterone,17α-N-(2-chloroethyl)-N-nitroso carbamate]
Hepatoma AH 130
  anti-tumor activity: exhibit anti-tumor activity
[1]
  anti-tumor activity: exhibit anti-tumor activity

## CC[C@]1(OC(=O)N(CCCl)N=O)CC[C@H]2[C@@H]3CCC4=CC(=O)CC[C@@H]4[C@H]3CC[C@@]21C [17α-ethyl-19-nortestosterone-17β-N-(2-chloroethyl)-N-nitroso carbamate]
Hepatoma AH 130
  anti-tumor activity: exhibit anti-tumor activity
[1]
  anti-tumor activity: exhibit anti-tumor activity
